Key:
[1] = biological target: Sodium-dependent noradrenaline transporter (Homo sapiens, UniProt P23975); assay: Inhibition of noradrenaline re-uptake at human noradrenaline transporter expressed in HEK293 cells; type: cell-based
[2] = Half life in rat at 3 mg/kg, iv or 5 mg/kg, po; type: ADME, organism-based; settings: in vivo
[3] = Half life in rat liver microsome; type: ADME; settings: liver microsomes
[4] = Oral bioavailability in rat at 5 mg/kg, po; type: ADME, organism-based; settings: in vivo
[5] = Blood clearance in rat in CNS penetration assay at 3 mg/kg, iv or 5 mg/kg, po; type: ADME, organism-based; settings: whole blood
[6] = Volume of distribution in rat at 3 mg/kg, iv or 5 mg/kg, po; type: ADME, organism-based; settings: in vivo, read-out: Vdss
[7] = Dissociation constant, pKa of the compound; type: physicochemical
Rattus norvegicus [8] = assay: Unbound volume of distribution in rat at 3 mg/kg, iv or 5 mg/kg, po; type: ADME, organism-based; settings: in vivo
[9] = Tmax in rat at 3 mg/kg, iv or 5 mg/kg, po; type: ADME, organism-based; settings: in vivo
[10] = Distribution coefficient of the compound, log D; type: physicochemical; settings: octanol/water
[11] = Half life in human liver microsome; type: ADME; settings: liver microsomes
[12] = Tmax in rat at 1 mg/kg, iv or 1 mg/kg, po; type: ADME, organism-based; settings: in vivo
[13] = Oral bioavailability in rat at 1 mg/kg, po; type: ADME, organism-based; settings: in vivo
[14] = Volume of distribution in rat at 1 mg/kg, iv or 1 mg/kg, po; type: ADME, organism-based; settings: in vivo, read-out: Vdss
Rattus norvegicus [15] = assay: Unbound volume of distribution in rat at 1 mg/kg, iv or 1 mg/kg, po; type: ADME, organism-based; settings: in vivo
[16] = Half life in rat at 1 mg/kg, iv or 1 mg/kg, po; type: ADME, organism-based; settings: in vivo

Sodium-dependent noradrenaline transporter, sequence (P23975 whole entry): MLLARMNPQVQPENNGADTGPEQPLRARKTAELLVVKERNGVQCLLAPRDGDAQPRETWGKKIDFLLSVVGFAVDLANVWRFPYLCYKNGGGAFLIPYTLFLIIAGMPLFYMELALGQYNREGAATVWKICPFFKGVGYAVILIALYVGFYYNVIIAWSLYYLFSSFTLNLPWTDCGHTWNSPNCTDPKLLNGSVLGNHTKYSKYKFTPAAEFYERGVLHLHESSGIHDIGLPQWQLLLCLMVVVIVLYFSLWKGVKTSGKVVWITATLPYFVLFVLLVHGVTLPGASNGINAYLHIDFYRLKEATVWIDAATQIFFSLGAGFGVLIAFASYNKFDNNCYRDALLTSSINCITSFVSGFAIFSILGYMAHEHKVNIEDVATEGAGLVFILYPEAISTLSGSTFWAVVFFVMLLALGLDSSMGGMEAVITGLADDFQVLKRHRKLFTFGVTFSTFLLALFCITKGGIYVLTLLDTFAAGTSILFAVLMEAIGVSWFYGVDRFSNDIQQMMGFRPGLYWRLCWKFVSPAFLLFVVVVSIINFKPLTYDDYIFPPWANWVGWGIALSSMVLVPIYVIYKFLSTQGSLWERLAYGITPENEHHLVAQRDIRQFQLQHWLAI

Structure (SMILES)	IC50 [1]	also measured
CN[C@H]1CC[C@@H](c2ccc(Cl)c(Cl)c2)c2cc(C(N)=O)ccc21	1.1 µM	
CN[C@H]1CC[C@@H](c2ccc(Cl)c(Cl)c2)c2ccc(S(N)(=O)=O)cc21	0.77 µM	half-life [2]: 4 h; half-life [3]: > 2 h; bioavailability [4]: 44%; clearance [5]: 60 mL/min/kg; Vd [6]: 19 L/kg; pKa [7]: 8.4; Vdss (Rattus norvegicus [8]): 600 L/kg; Tmax [9]: 1 h; logD [10]: 2.3; half-life [11]: > 2 h
CN[C@H]1CC[C@@H](c2ccc(Cl)c(Cl)c2)c2ccc(-n3ccnn3)cc21	0.65 µM	
CN[C@H]1CC[C@@H](c2ccc(Cl)c(Cl)c2)c2ccccc21 [SERTRALINE]		Tmax [12]: 4 h; bioavailability [13]: 51%; half-life [3]: 0.383 h; Vd [14]: 52 L/kg; pKa [7]: 9.3; Vdu (Rattus norvegicus [15]): 1900 L/kg; half-life [16]: 5 h; Log D [10]: 3.1; half-life [11]: > 2 h
CN[C@H]1CC[C@@H](c2ccc(Cl)c(Cl)c2)c2cc(C(=O)O)ccc21	20.3 µM	
CN[C@H]1CC[C@@H](c2ccc(Cl)c(Cl)c2)c2cc(C(=O)N(C)C)ccc21	11.5 µM	
CN[C@H]1CC[C@@H](c2ccc(Cl)c(Cl)c2)c2ccc(C#N)cc21	3.2 µM	
CN[C@H]1CC[C@@H](c2ccc(Cl)c(Cl)c2)c2cc([S+](C)[O-])ccc21 (some centres not stated)	1.8 µM	
CN[C@H]1CC[C@@H](c2ccc(Cl)c(Cl)c2)c2cc(C(N)=O)c(NS(C)(=O)=O)cc21	2.1 µM	
CN[C@H]1CC[C@@H](c2ccc(Cl)c(Cl)c2)c2ccc(S(C)(=O)=O)cc21	2.1 µM	
CN[C@H]1CC[C@@H](c2ccc(Cl)c(Cl)c2)c2ccc(CNS(C)(=O)=O)cc21	0.96 µM	
CN[C@H]1CC[C@@H](c2ccc(Cl)c(Cl)c2)c2cccc(C(=O)O)c21	0.88 µM	
CN[C@H]1CC[C@@H](c2ccc(Cl)c(Cl)c2)c2ccc(C(=O)OC)cc21	1.25 µM	
CN[C@H]1CC[C@@H](c2ccc(Cl)c(Cl)c2)c2ccc([S+](C)[O-])cc21 (some centres not stated)	2 µM	
CN[C@H]1CC[C@@H](c2ccc(Cl)c(Cl)c2)c2ccc(CC(N)=O)cc21	0.92 µM	
CNC(=O)c1ccc2c(c1)[C@@H](NC)CC[C@H]2c1ccc(Cl)c(Cl)c1		pKa [7]: 8.8; logD [10]: 2.8
CN[C@H]1CC[C@@H](c2ccc(Cl)c(Cl)c2)c2ccc(S(=O)(=O)NC)cc21	1.25 µM	logD [10]: 2.8

Now from value to molecule, other results behind:

IC50 [1]	Structure (SMILES)	also measured
2.1 µM	CN[C@H]1CC[C@@H](c2ccc(Cl)c(Cl)c2)c2cc(S(N)(=O)=O)ccc21	
0.41 µM	CN[C@H]1CC[C@@H](c2ccc(Cl)c(Cl)c2)c2ccc(C(N)=O)cc21	pKa [7]: 8.5; logD [10]: 2.3
9.1 µM	CN[C@H]1CC[C@@H](c2ccc(Cl)c(Cl)c2)c2cc(C(=O)O)c(NS(C)(=O)=O)cc21	
1.15 µM	CN[C@H]1CC[C@@H](c2ccc(Cl)c(Cl)c2)c2cccc(C(N)=O)c21	
0.45 µM	CN[C@H]1CC[C@@H](c2ccc(Cl)c(Cl)c2)c2ccc(C[S+](C)[O-])cc21 (some centres not stated)	
0.98 µM	CN[C@H]1CC[C@@H](c2ccc(Cl)c(Cl)c2)c2ccc(CO)cc21	
0.76 µM	CN[C@H]1CC[C@@H](c2ccc(Cl)c(Cl)c2)c2ccc(-n3cncn3)cc21	
0.54 µM	CN[C@H]1CC[C@@H](c2ccc(Cl)c(Cl)c2)c2ccc(S(=O)(=O)NCCO)cc21	
2.7 µM	CN[C@H]1CC[C@@H](c2ccc(Cl)c(Cl)c2)c2ccc(S(=O)(=O)N(C)C)cc21	
5 µM	CNC(=O)c1ccc2c(c1)[C@H](c1ccc(Cl)c(Cl)c1)CC[C@@H]2NC	
0.31 µM	CN[C@@H]1CC[C@@H](c2ccc(Cl)c(Cl)c2)c2ccc(S(N)(=O)=O)cc21	
1.5 µM	CNC(=O)c1cccc2c1[C@@H](NC)CC[C@H]2c1ccc(Cl)c(Cl)c1	
0.011 µM	CN[C@H]1CC[C@H](c2ccc(Cl)c(Cl)c2)c2ccc(S(N)(=O)=O)cc21	
2.9 µM	CN[C@H]1CC[C@@H](c2ccc(Cl)c(Cl)c2)c2ccc([N+](=O)[O-])cc21	
4.2 µM	CN[C@H]1CC[C@@H](c2ccc(Cl)c(Cl)c2)c2cc(S(C)(=O)=O)ccc21	
9.6 µM	CN[C@H]1CC[C@@H](c2ccc(Cl)c(Cl)c2)c2ccc(CC(=O)O)cc21	
0.31 µM	CN[C@@H]1CC[C@H](c2ccc(Cl)c(Cl)c2)c2ccc(S(N)(=O)=O)cc21	
0.06 µM	CN[C@H]1CC[C@@H](c2ccc(Cl)c(Cl)c2)c2ccc(NS(C)(=O)=O)cc21	
